Test results: US10428082B2, “Triazole derivatives of melampomagnolide B and methods of use thereof” (BioVentures, LLC, priority 2016, dated 2019)

Experiments:
[1] = system: NCI panel of 60 human cancer cell lines; experiment: NCI 60 growth inhibition, ranges over groups of cell lines; type: cell-based; conditions: 60 cell, several cell lines in the NCI 60 cell panel, read-out: GI50
Experimental: (§1) The above triazole derivatives of melampomagnolide B were evaluated for growth inhibitory properties against an NCI panel of 60 human cancer cell lines derived from nine human cancer cell types, grouped into disease sub-panels that represent leukemia, lung, colon, central nervous system (CNS), melanoma, renal, ovary, breast, and prostate cancer cells. Growth inhibitory (GI50) effects were measured as a function of the variation of optical density as a percentage of control.

M9 ENL1 cell line = experiment: Anti-leukemic activity, Annexin V/7-AAD flow cytometry; type: cell-based; conditions: M9-ENL1, 24 h, 24 h of drug exposure; read-out: M9ENL1 (EC50)
How it was run: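 Cells were exposed to drug for 24 h. Apoptotic populations were measured by flow cytometry with Annexin V/7-AAD labelling. Primary AML cells were from patients.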

MDA-MB-231/ATCC = experiment: NCI 60 growth inhibition; type: cell-based, human; conditions: Homo sapiens, Breast Cancer, Table 2
Experimental: as §1

NCI-H460 = experiment: NCI 60 growth inhibition; type: cell-based, human; conditions: Homo sapiens; NCI-H460, Non-Small Cell Lung Cancer, Table 2
Experimental: as §1

MDA-MB-468 = experiment: NCI 60 growth inhibition; type: cell-based, human; conditions: Homo sapiens; MDA-MB-468, Breast Cancer, Table 2
Experimental: as §1

SK-OV-3 = experiment: NCI 60 growth inhibition; type: cell-based, human; conditions: Homo sapiens; SK-OV-3, Ovarian Cancer, Table 2
Experimental: as §1

NCI-H322M = experiment: NCI 60 growth inhibition; type: cell-based, human; conditions: Homo sapiens, Non-Small Cell Lung Cancer, Table 2
Experimental: as §1

OVCAR-3 = experiment: NCI 60 growth inhibition; type: cell-based, human; conditions: Homo sapiens; OVCAR-3, Ovarian Cancer, Table 2
Experimental: as §1

M14 = experiment: NCI 60 growth inhibition; type: cell-based, human; conditions: Homo sapiens; M14, Melanoma, Table 2
Experimental: as §1

NCI-H522 = experiment: NCI 60 growth inhibition; type: cell-based, human; conditions: Homo sapiens; NCI-H522, Non-Small Cell Lung Cancer, Table 2
Experimental: as §1

HOP-92 = experiment: NCI 60 growth inhibition; type: cell-based, human; conditions: Homo sapiens; HOP-92, Non-Small Cell Lung Cancer, Table 2
Experimental: as §1

LOX IMVI = experiment: NCI 60 growth inhibition; type: cell-based, human; conditions: Homo sapiens, Melanoma, Table 2
Experimental: as §1

NCI/ADR-RES = experiment: NCI 60 growth inhibition; type: cell-based, human; conditions: Homo sapiens, Ovarian Cancer, Table 2
Experimental: as §1

SK-MEL-2 = experiment: NCI 60 growth inhibition; type: cell-based, human; conditions: Homo sapiens; SK-MEL-2, Melanoma, Table 2
Experimental: as §1

SNB-75 = experiment: NCI 60 growth inhibition; type: cell-based, human; conditions: Homo sapiens; SNB-75, CNS Cancer, Table 2
Experimental: as §1

HCT-15 = experiment: NCI 60 growth inhibition; type: cell-based, human; conditions: Homo sapiens; HCT-15, Colon Cancer, Table 2
Experimental: as §1

UACC-62 = experiment: NCI 60 growth inhibition; type: cell-based, human; conditions: Homo sapiens; UACC-62, Melanoma, Table 2
Experimental: as §1

T-47D = experiment: NCI 60 growth inhibition; type: cell-based, human; conditions: Homo sapiens, T47D, Breast Cancer, Table 2
Experimental: as §1

A549/ATCC = experiment: NCI 60 growth inhibition; type: cell-based, human; conditions: Homo sapiens, Non-Small Cell Lung Cancer, Table 2
Experimental: as §1

SR = experiment: NCI 60 growth inhibition; type: cell-based, human; conditions: Homo sapiens, Leukemia, Table 2
Experimental: as §1

RXF 393 = experiment: NCI 60 growth inhibition; type: cell-based, human; conditions: Homo sapiens, RXF 393, RXF 393, Renal Cancer, Table 2
Experimental: as §1

786-0 = experiment: NCI 60 growth inhibition; type: cell-based, human; conditions: Homo sapiens; 786-0, Renal Cancer, Table 2
Experimental: as §1

HS 578T = experiment: NCI 60 growth inhibition; type: cell-based, human; conditions: Homo sapiens, Breast Cancer, Table 2
Experimental: as §1

SK-MEL-5 = experiment: NCI 60 growth inhibition; type: cell-based, human; conditions: Homo sapiens; SK-MEL-5, Melanoma, Table 2
Experimental: as §1

MOLT-4 = experiment: NCI 60 growth inhibition; type: cell-based, human; conditions: Homo sapiens; MOLT-4, Leukemia, Table 2
Experimental: as §1

MALME-3M = experiment: NCI 60 growth inhibition; type: cell-based, human; conditions: Homo sapiens, Melanoma, Table 2
Experimental: as §1

NCI-H23 = experiment: NCI 60 growth inhibition; type: cell-based, human; conditions: Homo sapiens; NCI-H23, Non-Small Cell Lung Cancer, Table 2
Experimental: as §1

IGROV1 = experiment: NCI 60 growth inhibition; type: cell-based, human; conditions: Homo sapiens, IGROV-1; IGROV1, Ovarian Cancer, Table 2
Experimental: as §1

TK-10 = experiment: NCI 60 growth inhibition; type: cell-based, human; conditions: Homo sapiens; TK-10, Renal Cancer, Table 2
Experimental: as §1

HCC-2998 = experiment: NCI 60 growth inhibition; type: cell-based, human; conditions: Homo sapiens; HCC-2998, Colon Cancer, Table 2
Experimental: as §1

A498 = experiment: NCI 60 growth inhibition; type: cell-based, human; conditions: Homo sapiens; A498, Renal Cancer, Table 2
Experimental: as §1

NCI-H226 = experiment: NCI 60 growth inhibition; type: cell-based, human; conditions: Homo sapiens; NCI-H226, Non-Small Cell Lung Cancer, Table 2
Experimental: as §1

UO-31 = experiment: NCI 60 growth inhibition; type: cell-based, human; conditions: Homo sapiens; UO-31, Renal Cancer, Table 2
Experimental: as §1

HOP-62 = experiment: NCI 60 growth inhibition; type: cell-based, human; conditions: Homo sapiens; HOP-62, Non-Small Cell Lung Cancer, Table 2
Experimental: as §1

SF-295 = experiment: NCI 60 growth inhibition; type: cell-based, human; conditions: Homo sapiens; SF-295, CNS Cancer, Table 2
Experimental: as §1

COLO 205 = experiment: NCI 60 growth inhibition; type: cell-based, human; conditions: Homo sapiens; COLO 205, Colon Cancer, Table 2
Experimental: as §1

SF-539 = experiment: NCI 60 growth inhibition; type: cell-based, human; conditions: Homo sapiens; SF-539, CNS Cancer, Table 2
Experimental: as §1

SMILES | GI50 [1] [nM] | EC50 (M9 ENL1 cell line) [nM] | GI50 (MDA-MB-231/ATCC) [nM] | GI50 (NCI-H460) [nM] | GI50 (MDA-MB-468) [nM] | GI50 (SK-OV-3) [nM] | GI50 (NCI-H322M) [nM] | GI50 (OVCAR-3) [nM] | GI50 (M14) [nM] | GI50 (NCI-H522) [nM] | GI50 (HOP-92) [nM] | GI50 (LOX IMVI) [nM] | GI50 (NCI/ADR-RES) [nM] | GI50 (SK-MEL-2) [nM] | GI50 (SNB-75) [nM] | GI50 (HCT-15) [nM] | GI50 (UACC-62) [nM] | GI50 (T-47D) [nM] | GI50 (A549/ATCC) [nM] | GI50 (SR) [nM] | further results
C=C1C(=O)O[C@H]2[C@H]1CC/C(Cn1cc(-c3ccccc3)nn1)=C\CC[C@@]1(C)O[C@@H]21 [JVM 3-74, (1aR,7aS,10aS,10bS,E)-1a-Methyl-8-methylene-5-((4-phenyl-1H-1,2,3-triazol-1-yl)methyl)-2,3,6,7,7a,8,10a,10b-octahydrooxireno[2′,3′:9,10]cyclodeca[1,2-b]furan-9(1aH)-one] | 200 to 990 | 1900 | 2000 | 7740 | 950 | 9950 | 7790 | 1400 | 1780 | 810 | 1420 | 800 | 6170 | 5500 | 6210 | 770 | 1870 | 1300 | 5880 | 1060 | GI50 (RXF 393): 1550 nM; GI50 (786-0): 2630 nM; GI50 (HS 578T): 9780 nM; GI50 (SK-MEL-5): 7320 nM; GI50 (MOLT-4): 1290 nM; GI50 (MALME-3M): 1170 nM; GI50 (NCI-H23): 5380 nM; GI50 (IGROV1): 6950 nM; GI50 (TK-10): 1210 nM; GI50 (HCC-2998): 6160 nM; GI50 (A498): 7800 nM; GI50 (NCI-H226): 4600 nM; GI50 (UO-31): 870 nM; GI50 (HOP-62): 7410 nM; GI50 (SF-295): 7890 nM; GI50 (COLO 205): 1080 nM; GI50 (SF-539): 2010 nM
C=C1C(=O)O[C@H]2[C@H]1CC/C(Cn1cc(-c3ccc(OC)cc3)nn1)=C\CC[C@@]1(C)O[C@@H]21 [JVM 4-24, (1aR,7aS,10aS,10bS,E)-5((4-(4-Methoxyphenyl)-1H-1,2,3-triazol-1-yl)methyl)-1a-methyl-8-methylene-2,3,6,7,7a,8,10a,10b-octahydrooxireno[2′,3′:9,10]cyclodeca[1,2-b]furan-9(1aH)-one] | 200 to 990 | 1400 | 1440 | 8450 | 890 | 16300 | 10700 | 560 | 1300 | 380 | 1130 | 1160 | 3080 | 1950 | 1470 | 330 | 1350 | 1430 | 10900 | 250 | GI50 (RXF 393): 700 nM; GI50 (786-0): 1240 nM; GI50 (HS 578T): 7420 nM; GI50 (SK-MEL-5): 2100 nM; GI50 (MOLT-4): 1130 nM; GI50 (MALME-3M): 1670 nM; GI50 (NCI-H23): 2060 nM; GI50 (IGROV1): 1350 nM; GI50 (TK-10): 1420 nM; GI50 (HCC-2998): 1980 nM; GI50 (A498): 2350 nM; GI50 (NCI-H226): 1990 nM; GI50 (UO-31): 1270 nM; GI50 (HOP-62): 10500 nM; GI50 (SF-295): 11000 nM; GI50 (COLO 205): 500 nM; GI50 (SF-539): 340 nM
